Like-named read-outs stand apart in the source and are kept apart here.

Assay [1] addresses T1, recombinant human NK1 receptors (Homo sapiens, UniProt P25103).
T1 construct: expressed in transfected cells; host or cells: CHO cells (membranes)
As to the kind of experiment: NK1 receptor binding affinity, scintillation proximity assay (SPA), displacement of [125I]Tyr8-Substance P. To be noted: average of at least two determinations, CHO cell membranes, read-out: pKi (negative logarithm of the inhibition constant), NK1 receptor SPA binding (converted). The text has this: NK1-receptor binding affinity has been determined in vitro in a binding Scintillation proximity assay (SPA) by measuring the compounds' ability to displace [^125I]Tyr8-Substance P (SP) from recombinant human NK1 receptors stably expressed in Chinese Hamster Ovary (CHO) cell membranes prepared by using a modification of the method described by Beattie D. T. et al. (Br. J. Pharmacol, 116:3149-3157, 1995). Briefly, polystyrene Leadseeker WGA-SPA beads (Amersham Biosciences) were mixed with cell membranes in a bead/membrane ratio of 50:1 (w/w) in assay buffer (75 mM Tris pH 7.8, 75 mM NaCl, 4 mM MnCl2, 1 mM EDTA, 0.05% Chaps, 1 mM PMSF). The mixture was placed on ice for 30 minutes to allow the formation of membrane/bead complex before BSA was added to a final concentration of 1%. After another 30 minutes incubation on ice, the bead/membrane complex was washed twice and suspended in assay buffer. [^125I]Tyr8-Substance P (2200 Ci/mmol, PerkinElmer) was then added to the bead/membrane complex with a final concentration of 0.4 nM. 30 ul of the resulting mixture was then dispensed to each well of Nalgen NUNC 384-well plate with 1 ul compound pre-dispensed in DMSO. The plates were then sealed and pulse centrifuged at 1100 rpm. After 3 hours incubation at room temperature with shaking, the plates were centrifuged for 2 min at 1100 rpm and measured in Viewlux imager (PerkinElmer) for 5 minutes with a 618-nm filter. Inhibition of [^125I]Tyr8-Substance P binding to NK1-receptors was measured by the reduction of luminescent signal. IC50 values of each compound were determined by an 11-point 3×-dilution inhibition curve. pKi values were calculated using the KD of [^125I]Tyr8-Substance P determined in a separate experiment.
The affinity of the compound of the invention for the NK1 receptor was determined using the NK1 receptor binding affinity method (Scintillation proximity assay (SPA)) measured in vitro by the compounds' ability to displace [^125I]Tyr8-Substance P (SP) from recombinant human NK1 receptors expressed in Chinese Hamster Ovary (CHO) cell membranes. The affinity values are expressed as negative logarithm of the inhibition constant (pKi) of displacer ligands.
In general terms: In a scintillation proximity assay essentially only radioactivity close to the scintillant gives light.

For assay [2], the target named is T2, recombinant human serotonin transporter (Homo sapiens, UniProt P31645).
T2 construct: expressed in transfected cells; host or cells: porcine LLCPK cells stably transfected with hSERT (membranes)
T2 sequence (P31645 whole entry): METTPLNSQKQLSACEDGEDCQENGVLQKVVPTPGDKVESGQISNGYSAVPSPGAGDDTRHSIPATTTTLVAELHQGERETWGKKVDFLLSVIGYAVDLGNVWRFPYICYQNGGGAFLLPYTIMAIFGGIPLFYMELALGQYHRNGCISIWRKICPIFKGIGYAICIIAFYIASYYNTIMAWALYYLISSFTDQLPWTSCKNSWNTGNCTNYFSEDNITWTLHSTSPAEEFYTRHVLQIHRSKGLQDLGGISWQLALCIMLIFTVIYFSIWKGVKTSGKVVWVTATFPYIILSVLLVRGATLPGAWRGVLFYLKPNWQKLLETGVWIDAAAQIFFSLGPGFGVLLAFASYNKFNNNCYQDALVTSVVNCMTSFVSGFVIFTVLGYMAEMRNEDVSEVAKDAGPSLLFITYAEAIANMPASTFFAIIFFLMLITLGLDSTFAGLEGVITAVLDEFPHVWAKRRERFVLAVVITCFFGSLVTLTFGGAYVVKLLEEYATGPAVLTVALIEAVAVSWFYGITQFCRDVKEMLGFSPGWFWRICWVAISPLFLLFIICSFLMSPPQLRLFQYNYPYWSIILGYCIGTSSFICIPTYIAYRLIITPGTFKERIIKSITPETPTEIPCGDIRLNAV
Nature of the assay: hSERT binding affinity, displacement of [3H]-citalopram. On the procedure: SERT binding affinity has been determined in vitro by the compounds' ability to displace [^3H]-citalopram from hSERT-LLCPK cell membranes. For the binding reaction, a final concentration of 0.25 nM of [^3H] citalopram (84 Ci/mmol, Amersham) was incubated with 3-5 μg/ml of cell membrane and the compound to be tested at different concentrations (7 concentration points in duplicate) in 50 mM Tris HCl, pH 7.7, containing 120 mM NaCl, 5 mM KCl, 10 μM pargyline and 0.1% ascorbic acid. The reaction was performed for 120 min at 22° C. and was terminated through GF/B Unifilter (pre-soaked in 0.5% PEI) using a Cell Harvester (Tomtec). Scintillation fluid was added to each filtered spot and radioactivity was determined using a scintillation counter (TopCount (Packard)). Non-specific binding was determined using paroxetine (10 μM) and represents about 2-5% of the total binding. Competition experiments were conducted with duplicate determination for each point. Msat601 software package was used to elaborate the competition binding data. IC50 values were converted to Ki values using the Cheng-Prusoff equation and by using the KD of [^3H]citalopram determined in separate experiments.
The affinity of the compounds of the invention for the serotonin transporter was determined using the hSERT binding affinity method and measuring in vitro the compounds' ability to displace [^3H]-citalopram from recombinant human serotonin transporter expressed in Porcine Epithelial Kidney LLCPK cell membranes. The affinity values are expressed as negative logarithm of the inhibition constant of displacer ligands (pKi).
A general note: Loss of bound radioactivity is the signal in a displacement assay; it reports binding, not function.

The mark [3] stands for this setting: average of at least two determinations, [3H]-citalopram, LLCPK cell membranes, read-out: pKi, serotonin transporter binding (converted).

T1 sequence (P25103 whole entry): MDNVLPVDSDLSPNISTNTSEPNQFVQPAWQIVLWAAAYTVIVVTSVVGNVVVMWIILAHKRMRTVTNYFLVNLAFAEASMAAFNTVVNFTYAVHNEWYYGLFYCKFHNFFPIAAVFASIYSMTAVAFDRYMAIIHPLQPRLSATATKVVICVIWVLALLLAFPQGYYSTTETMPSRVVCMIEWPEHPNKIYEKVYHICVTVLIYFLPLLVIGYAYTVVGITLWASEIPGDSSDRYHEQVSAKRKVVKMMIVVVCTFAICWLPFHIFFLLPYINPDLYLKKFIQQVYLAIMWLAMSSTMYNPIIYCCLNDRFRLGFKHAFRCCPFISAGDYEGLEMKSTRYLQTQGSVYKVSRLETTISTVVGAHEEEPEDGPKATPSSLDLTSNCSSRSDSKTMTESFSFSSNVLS

Turning to `CN1CCC(C2=CCN(Cc3cc(Cl)cc(Cl)c3)C2=O)(c2ccc(F)cc2)CC1` [Example 3, 1-[(3,5-Dichlorophenyl)methyl]-3-[4-(4-fluorophenyl)-1-methyl-4-piperidinyl]-1,5-dihydro-2H-pyrrol-2-one], the Ki in assay [1] was 2.24 to 8.51 nM; in assay [2], 1.26 to 9.12 nM.
As for `CC(c1cc(Cl)cc(Cl)c1)N1CC=C(C2(c3ccc(F)cc3)CCNCC2)C1=O` (single isomer, unassigned) [Example 5, 1-[1-(3,5-Dichlorophenyl)ethyl]-3-[4-(4-fluorophenyl)-4-piperidinyl]-1,5-dihydro-2H-pyrrol-2-one], the Ki in assay [1] is 2.24 to 8.51 nM; in assay [2] (setting [3]), 1.26 to 9.12 nM.
For `C[C@H](c1cc(Cl)cc2ccccc12)N1CC=C(C2(c3ccc(F)cc3)CCN(C)CC2)C1=O` [Example 15, 1-[(1R)-1-(3-Chloro-1-naphthalenyl)ethyl]-3-[4-(4-fluorophenyl)-1-methyl-4-piperidinyl]-1,5-dihydro-2H-pyrrol-2-one], the Ki is 2.24 to 8.51 nM in assay [1] and 1.26 to 9.12 nM in assay [2].
For `CC(c1cc(Cl)cc(Cl)c1)N1CC=C(C2(c3ccc(F)cc3)CCN(C)CC2)C1=O` (single isomer, unassigned) [Example 11, 1-[1-(3,5-Dichlorophenyl)ethyl]-3-[4-(4-fluorophenyl)-1-methyl-4-piperidinyl]-1,5-dihydro-2H-pyrrol-2-one] the same measures were 2.24 to 8.51 nM and 1.26 to 9.12 nM.
As for `C[C@@H](c1cc(Cl)cc2ccccc12)N1CC=C(C2(c3ccc(F)cc3)CCNCC2)C1=O` [Example 6, 1-[(1S)-1-(3-Chloro-1-naphthalenyl)ethyl]-3-[4-(4-fluorophenyl)-4-piperidinyl]-1,5-dihydro-2H-pyrrol-2-one], the values for the Ki in assay [1] and in assay [2] (setting [3]) were 2.24 to 8.51 nM and 1.26 to 9.12 nM, respectively.
On to `O=C1C(C2(c3ccc(F)cc3)CCNCC2)=CCN1Cc1cc(Cl)cc(Cl)c1` [Example 1, 1-[(3,5-Dichlorophenyl)methyl]-3-[4-(4-fluorophenyl)-4-piperidinyl]-1,5-dihydro-2H-Pyrrol-2-one], for which the Ki was 2.24 to 8.51 nM in assay [1] and 1.26 to 9.12 nM in assay [2] (setting [3]).
On to `CN1CCC(C2=CCN(Cc3cc(C#N)cc4ccccc34)C2=O)(c2ccc(F)cc2)CC1` [Example 16, 4-({3-[4-(4-Fluorophenyl)-1-methyl-4-piperidinyl]-2-oxo-2,5-dihydro-1H-pyrrol-1-yl}methyl)-2-naphthalenecarbonitrile], for which the Ki in assay [1] is 2.24 to 8.51 nM; in assay [2], 1.26 to 9.12 nM.

The record behind these values is US20080262041A1, “Beta-Lactams for Treatment of Cns Disorders” (priority 2003, published 2008).
